≈ marks a conversion by molar mass, not a printed value.
How the values were obtained:
[1] = test system: MCF7; assay: Cytotoxicity against human MCF7 cells after 6 days by MTT assay; type: functional, cell-based; conditions: MCF7, 144 h
[2] = Cytotoxicity against human Hep3B cells after 6 days by MTT assay; type: functional, cell-based, Hep 3B2; conditions: 144 h
[3] = test system: HepG2; assay: Cytotoxicity against human HepG2 cells after 6 days by MTT assay; type: functional, cell-based; conditions: HepG2, 144 h
[4] = test system: HT-29; assay: Cytotoxicity against human HT-29 cells after 6 days by MTT assay; type: functional, cell-based; conditions: HT-29, 144 h

COc1cc2c(cc1OC)C13C[C@@H](OC)C=C[C@@]14O[C@H]4C(=O)N3CCC2 (some centres undefined) showed an IC50 [1] of 42 µg/mL (≈ 118 µM), an IC50 [2] of 52 µg/mL (≈ 145 µM) and an IC50 [3] of 52 µg/mL (≈ 145 µM). The IC50 [4] was 24.4 µg/mL (≈ 68.3 µM).

Source: ChEMBL document CHEMBL1151256, “New alkaloids and a tetraflavonoid from Cephalotaxus wilsoniana” (J Nat Prod, 2004)
